This assay concerns C2C12-derived myotubes. In words: Mitochondrial calcium rise (mitochondrial aequorin) in caffeine-stimulated C2C12-derived myotubes. It counts as cell-based, mouse. Particulars: evoked by 5 mM caffeine, vs 0.5 mM calcium in the medium. The source says:
To test the effect of Oleuropein, its metabolites and calcium supplementation/deficiency in living cells, the inventors measured mitochondrial calcium elevation in HeLa cells and in myotubes differentiated from both mouse C2C12 cells and human primary adult muscle cells. HeLa cells and C2C12 cells were purchased from ATCC. Human Skeletal Muscle Myoblasts (HSMM) were purchased from Lonza. HSMM were isolated from the upper arm or leg muscle tissue of normal donors and used after the second passage. HeLa cells were seeded in 96-well plates at a density of 50000 cells per well in minimal essential medium (DMEM, Gibco), high glucose, +10% fetal calf serum. C2C12 cells were seeded in 96-well plates at a density of 8000 cells per well in DMEM high glucose (Gibco)+10% fetal calf serum. Myotubes were differentiated from C2C12 cells by growing the cells in DMEM containing 2% horse serum, for 4 days. HSMM were seeded in 96-well plates at a density of 8000 cells per well in DMEM/F-12 (Gibco). […]
For treatment, compounds were directly added to the cell culture or myotubes cultures 2 hours before measurements. Luminescence was measured at the Cytation 3 cell imaging reader (Biotek) or at the FLIPR Tetra Aequorin (Molecular Devices). […] Custom module analysis based on Excel (Microsoft) and GhaphPad Prism 7.02 (GraphPad) software was used for quantification.

As to `[Ca+2]` [calcium], the “integrated mitochondrial calcium rise, effect of extracellular calcium abundance” value was “activates mitochondrial Ca^2+ elevation in a dose/response manner” (P<0.05, listed as Ca^2+) and “enhances mitochondrial Ca′ elevation in a dose/response manner” (P<0.05, listed as Ca′).
